# In patent US9192617B2, “Pharmaceutical composition, methods for treating and uses thereof” (Boehringer Ingelheim International GmbH, priority 2012, dated 2015):
# Entries after “also recorded” stand apart in the source; their conditions may differ.
# Columns and labels:
# Format in all cases: in vivo, Female Wistar rats
# [1] = Plasma metabolic parameters on Day 30 in DIO rats; settings: FIG. 3a; for plasma glucose / plasma insulin: after 30 days of treatment, vs vehicle; for plasma leptin: Day 30, overnight fast
# Experimental: (§1) In combination studies, sibutramine is dosed once daily with empagliflozin. Orlistat is dosed twice daily: once at the start of the dark phase (in combination with empagliflozin) and again four hours later. Blood samples are taken after approximately 2 and 4 weeks of dosing after a 4 h fast, with the exception of the combination studies with sibutramine and orlistat where samples are taken after an overnight fast. In the studies where empagliflozin is given with either orlistat or sibutramine, animals undergo an oral glucose (2 g/kg) tolerance test on Day 30 after an overnight fast. Blood samples are taken immediately before and 10, 20, 30, 60 and 120 minutes post glucose administration. At the conclusion of each experiment, carcasses are saved for body composition analysis.
# (§2) Blood is collected in EDTA-coated collection tubes (Sarstedt) and immediately spun in a cooled centrifuge and the plasma stored frozen. Subsequently, plasma is assayed for content of one or more of the following: glucose, insulin, leptin, glycerol, and triacylglycerol (TAG) content. Blood (collected in an EDTA tube and frozen immediately) is assayed for HbA1c.
# (§3) Commercially available enzyme-linked immunosorbent assays (ELISAs) and colorimetric kits are used to assay glucose (Thermo Electron Corp., PA, USA), insulin (Mercodia, Uppsala, Sweden), glycerol and true triglycerides (Sigma, Mo., USA), and leptin (Assay Designs, MI, USA). HbA1c is assayed by a direct enzymatic assay (Diazyme, CA, USA).
# (§4) Plasma data are analysed by a general linear model with treatment as a factor. Where appropriate, data undergo a log transformation prior to analysis. Baseline plasma data and Day 1 body weight are included as covariates. HbA1c data are analysed by a robust regression model using M estimation (Huber weighting, using the default parameter c=1.345). Baseline HbA1c levels and Day 1 body weight are included as covariates. Since no differences are observed between the two and four week changes in plasma parameters, only the final plasma data for each study is detailed.
# [2] = Oral glucose (2 g/kg) tolerance test on Day 30 in DIO rats; settings: for glucose tolerance (glucose AUC): OGTT 2 g/kg after 30 days of treatment, vs vehicle, FIG. 2a; for AUC of insulin during OGTT: OGTT Day 30, FIG. 2b
# Experimental: as §1, §2, §3, §4
# [3] = Carcass body composition (FoodScan NIR) of DIO rats at study conclusion; settings: FIG. 3b
# Experimental: Carcass composition (body fat, protein and water) is determined using the FoodScan NIR (near infra-red) meat analyser (Foss, UK). Carcasses are milled at the temperature of liquid nitrogen and stored at −20° C. in sealed containers.
# Carcass composition data are analysed by robust regression with treatment as factors. Day 1 body weight is included as a covariate.
# [4] = Body weight in diet-induced obese (DIO) rats, chronic oral dosing; settings: Day 29, FIG. 1
# Experimental: Female Wistar rats (weight range 250-300 g upon arrival) are obtained from Charles River (Margate, Kent) and housed in pairs or threes at a temperature of 21±4° C. and 55±20% humidity. Animals are maintained on a reverse phase light-dark cycle (lights off for 8 h from 09.30-17.30 h) during which time the room is illuminated by red light. Animals have free access to powdered high fat diet (VRF1 plus 20% lard; Special Diet Services (SDS), Witham, UK), ground chocolate (Cadbury's Dairy Milk®), ground peanuts (Big D®, Trigon Snacks Ltd.) and tap water at all times unless specified otherwise. Animals are housed for 20-24 weeks for the induction of obesity. The work reported in this manuscript is performed in accordance with UK law as detailed in the Animals (Scientific Procedures) Act 1986.
# Approximately two weeks before the start of the studies, animals are housed singly in polypropylene cages with wire grid floors (so food spillage could be determined). Each cage contains an appropriate amount of paper bedding for warmth, environmental enrichment and to provide an area for animals to get off the wire grid floor. […]
# Statistical analysis is performed by a Statistician. Body weight and food and water intake data are assessed by analysis of covariance (ANCOVA) with treatment as a factor, and baseline data as the covariate. […]
Structure (SMILES),plasma glucose [1],plasma insulin [1],glucose tolerance (glucose AUC) [2],glucose tolerance (glucose AUC) ([2]; listed as Empagliflozin),AUC of insulin during OGTT [2],body composition [3],plasma leptin [1],carcass fat / body fat [3],weight loss compared with vehicle-treated controls [4]
"OC[C@H]1O[C@@H](c2ccc(Cl)c(Cc3ccc(O[C@H]4CCOC4)cc3)c2)[C@H](O)[C@@H](O)[C@@H]1O [empagliflozin, 1-chloro-4-(β-D-glucopyranos-1-yl)-2-[4-((S)-tetrahydrofuran-3-yloxy)-benzyl]-benzene]",significantly reduces plasma glucose,significantly reduce plasma insulin; also recorded: either a small effect to reduce plasma insulin or no impact,improve glucose tolerance,significantly improve glucose tolerance,reduced significantly; also recorded: significant reductions in the glucose and insulin AUC,does not significantly affect body composition,,,
CC(C)CC(N(C)C)C1(c2ccc(Cl)cc2)CCC1 (stereo not drawn) [sibutramine],significantly reduces plasma glucose,significantly reduce plasma insulin; also recorded: reduces plasma insulin,significantly improve glucose tolerance,,significant reductions in the glucose and insulin AUC,,reduce plasma leptin,significantly and selectively reduce carcass fat,7.0%
CCCCCCCCCCC[C@@H](C[C@@H]1OC(=O)[C@H]1CCCCCC)OC(=O)[C@H](CC(C)C)NC=O [orlistat],,,does not significantly affect glucose tolerance,,not significantly decreased,,reduce plasma leptin,significantly and selectively reduce carcass fat,2.4%
